Data from US7718651B2, “Inhibitors of FtsZ and uses thereof” (priority 2002, dated 2010).
Read-outs that look alike come from different tables or passages of the source.

System: M. tuberculosis H37Rv
Assay: microbe, parasite or virus in culture
Type: cell-based
[1] = M. tuberculosis H37Rv, screen concentration 12.5 g/ml [sic], Table 8

| Structure (SMILES) | % Inh [1] [%] | other results |
| --- | --- | --- |
| CCOC(=O)Nc1cc(NC(C)CCCN(CC)CC)c2ncc(-c3ccc(C(F)(F)F)cc3)nc2n1 (stereo not drawn) [Compound A102] | 54 | – |
| CCOC(=O)Nc1cc(NCCc2ccc(S(N)(=O)=O)cc2)c([N+](=O)[O-])c(N)n1 [Compound A126] | 30 | – |
| CCOC(=O)Nc1cc(NC(C)C(=O)c2ccc(O)cc2)c([N+](=O)[O-])c(N)n1 (stereo not drawn) [Compound A183] | 2 | – |
| CCOC(=O)Nc1cc(NC(C)C(=O)Cc2ccccc2)c([N+](=O)[O-])c(N)n1 (stereo not drawn) [Compound A313] | −21 | – |
| CCCCC(Nc1cc(NC(=O)OCC)nc(N)c1[N+](=O)[O-])C(C)O (stereo not drawn) [Compound A302] | −1 | – |
| CCOC(=O)Nc1cc2c(c(N)n1)N=C(CN(C)c1ccccc1)CN2 [Compound A80] | 70 | – |
| CCOC(=O)Nc1cc2c(c(N)n1)N=C(c1ccc(OC)cc1)CO2 [Compound A192] | 0 | – |
| CCOC(=O)Nc1cc2c(c(N)n1)N=C(c1ccccc1)CN2 [Compound A65] | 83 | – |
| CCOC(=O)Nc1cc2[nH]nnc2c(Cl)n1 [Compound A206] | 0 | – |
| CCOC(=O)Nc1cc2[nH]c(-c3cc(OC)c(OC)cc3OC)nc2c(N(CCc2ccccc2)Cc2ccccc2)n1 [Compound A29] | 97 | – |
| CCCCNC(=O)Oc1ccc(C2=Nc3c(cc(NC(=O)OCC)nc3N)N[C@H]2C)cc1 [SRI-20158, [5-Amino-3-(4-butylcarbamoyloxy-phenyl)-2-methyl-1,2-dihydro-pyrido[3,4-b]pyrazin-7-yl]-carbamic acid ethyl ester] | – | inhibition of growth at 12.5 µg/mL (Mycobacterium tuberculosis, M. tuberculosis H37Rv, at 12.5% μg/ml (so in the source), read-out: Primary Screen PI (% inhibition of growth)): 10% |
| CCOC(=O)Nc1cc2ncc(C(=O)N(C)c3ccccc3)nc2c(N)n1 [Compound A123] | 31 | – |
| CCOC(=O)Nc1cc(NC(c2ccccc2)c2ccccc2)c([N+](=O)[O-])c(NC(=O)OCC)n1 [Compound A175] | 5 | – |
| CCOC(=O)N(Cc1ccccc1)c1cc(Cl)c([N+](=O)[O-])c(N)n1 [Compound A293] | 0 | – |
| CCOC(=O)Nc1ccc(/N=C/c2ccccc2)cn1 [Compound A223] | 0 | – |
| CCOC(=O)Nc1cc2[nH]c(=O)c(-c3ccccc3)nc2c(NC(c2ccccc2)c2ccccc2)n1 [Compound A195] | 0 | – |
| CCOC(=O)Nc1cc(NC/C(=N/O)c2cccc(OC)c2)c([N+](=O)[O-])c(N)n1 [Compound A231] | 0 | – |
| CCOC(=O)Nc1cc(N)c([N+](=O)[O-])c(Cl)n1 [Compound A76] | 72 | – |
| CCOC(=O)Nc1cc2nc(-c3ccccc3)c(-c3ccccc3)nc2c(OCC)n1 [Compound A72] | 75 | – |
| CCOC(=O)Nc1cc2[nH]c(-c3cccc(C)c3)nc2c(N(CCc2ccccc2)Cc2ccccc2)n1 [Compound A297] | 0 | – |
| CCOC(=O)Nc1cc(NC(C)C(O)c2ccc(O)cc2)c(N)c(N)n1 (stereo not drawn) [Compound A179] | 4 | – |
| CCOC(=O)Nc1cc2[nH]c(-c3cc(OC)c(OC)c(OC)c3)nc2c(N(CCc2ccccc2)Cc2ccccc2)n1 [Compound A28] | 97 | – |
| CCOC(=O)Nc1cc(NCCCCc2ccccc2)c2nc[nH]c2n1 [Compound A86] | 65 | – |
| CCOC(=O)Nc1cc2c(c(NC(=O)CBr)n1)N=C(c1ccccc1)CO2 [Compound A229] | 0 | – |
| CCOC(=O)Nc1cc(NCc2ccc(S(N)(=O)=O)cc2)c([N+](=O)[O-])c(N)n1 [Compound A244] | 0 | – |
| CCOC(=O)Nc1cc(N)c2nc(CN(C)c3ccccc3)cnc2n1 [Compound A273] | 0 | – |

| Structure (SMILES) | % Inh [1] [%] | other results |
| --- | --- | --- |
| CCOC(=O)Nc1cc(NCC(O)CN(C)c2ccccc2)c(N)c(NC(=O)OCC)n1 (stereo not drawn) [Compound A169] | 7 | – |
| CCOC(=O)Nc1cc2c(nc(SCc3ccccc3)n2N)c(N)n1 [Compound A120] | 34 | – |
| CCOC(=O)Nc1cc(NC(c2ccccc2)c2ccccc2)c([N+](=O)[O-])c(Cl)n1 [Compound A299] | 0 | – |
| CCOC(=O)Nc1cc(NCC(=O)c2ccc(Cl)cc2)c([N+](=O)[O-])c(N)n1 [Compound A240] | 0 | – |
| CCOC(=O)Nc1cc(NCC(=O)c2ccc(OC)cc2)c([N+](=O)[O-])c(N)n1 [Compound A237] | 0 | – |
| CCOC(=O)Nc1cc2nc(-c3ccccc3)c(-c3ccccc3)nc2c(N)n1 [Compound A49] | 92 | – |
| CCOC(=O)Nc1cc(Cl)c2nc(-c3cc(OC)c(OC)c(OC)c3)c(-c3cc(OC)c(OC)c(OC)c3)nc2n1 [Compound A268] | 0 | – |
| CCOC(=O)Nc1cc2oc(-c3cc(OC)c(OC)c(OC)c3)nc2c(N(CCc2ccccc2)Cc2ccccc2)n1 [Compound A124] | 31 | – |
| CCOC(=O)Nc1cc(NCc2ccccc2)c([N+](=O)[O-])c(N)n1 [Compound A66] | 83 | – |
| CCOC(=O)Nc1cc2nc(-c3ccc(Cl)cc3)[nH]c2c(N(CCc2ccccc2)Cc2ccccc2)n1 [Compound A27] | 97 | – |
| CCOC(=O)Nc1cc2[nH]c(-c3cccc4ccccc34)nc2c(N(CCc2ccccc2)Cc2ccccc2)n1 [Compound A18] | 98 | – |
| CCOC(=O)Nc1cc(NCC(O)CN(C)c2ccccc2)c2nc(O)[nH]c2n1 (stereo not drawn) [Compound A63] | 86 | – |
| CCOC(=O)Nc1cc2c(c(N)n1)N=C(c1ccccc1)[C@H](C)N2 [Compound A110] | – | % Inh: 43% |
| CCOC(=O)Nc1cc2[nH]c(-c3ccc(O)cc3)nc2c(N)n1 [Compound A152] | 13 | – |
| CCOC(=O)Nc1cc2c(c(N)n1)N=C(CN(C)c1ccc(C(=O)OC)cc1)CN2 [Compound A288] | 0 | – |
| CCOC(=O)Nc1cc(NCc2ccccc2)c2nc[nH]c2n1 [Compound A111] | 43 | – |
| CCOC(=O)Nc1cc2c([nH]c(=S)n2/N=C/c2ccc3c(c2)OCO3)c(N)n1 [Compound A241] | 0 | – |
| C=CCNc1cc(NC(=O)OCC)nc(NC(=O)OCC)c1[N+](=O)[O-] [Compound A281] | 0 | – |
| CCOC(=O)Nc1cc(NC(c2ccccc2)c2ccccc2)c2[nH]c(=O)cnc2n1 [Compound A70] | 76 | – |
| CCOC(=O)Nc1cc(N[C@@H](C)C(=O)c2ccc(O)cc2)c([N+](=O)[O-])c(N)n1 [Compound A305] | – | % Inh: −2% |
| CCOC(=O)Nc1cc(NCC(=O)c2ccc(F)cc2)c([N+](=O)[O-])c(N)n1 [Compound A211] | 0 | – |
| CCOC(=O)Nc1cc(N)c2ncn(/N=C/c3ccccc3)c2n1 [Compound A81] | 69 | – |
| CCOC(=O)Nc1cc(N/N=C/c2ccccc2)c2nc(SCc3ccccc3)[nH]c2n1 [Compound A57] | 89 | – |
| CCOC(=O)Nc1cc(NC(c2ccccc2)c2ccccc2)c(/N=C/c2ccc(Cl)cc2Cl)c(N)n1 [Compound A263] | 0 | – |
| CCOC(=O)Nc1cc2c(c(/N=C/N(C)C)n1)N=C(c1ccccc1)CO2 [Compound A230] | 0 | – |
| CCOC(=O)Nc1cc2c(cn1)N=C(c1ccccc1)[C@H](C)N2 [Compound A105] | 49 | – |

| Structure (SMILES) | % Inh [1] [%] | other results |
| --- | --- | --- |
| CCOC(=O)Nc1cc2[nH]c(-c3ccc(Cl)cc3)nc2c(N(CCc2ccccc2)Cc2ccccc2)n1 [Compound A4] | 99 | – |
| CCOC(=O)Nc1cc(NC(c2ccccc2)c2ccccc2)c2ncc(O)nc2n1 [Compound A61] | 87 | – |
| CCOC(=O)Nc1cc(NC(c2ccccc2)c2ccccc2)c2nc(O)[nH]c2n1 [Compound A134] | 23 | – |
| CCOC(=O)Nc1cc(SC(=N)N)c([N+](=O)[O-])c(N)n1 [Compound A84] | 66 | – |
| COc1ccc(OC)c(-c2nc3c(N(CCc4ccccc4)Cc4ccccc4)nc(NC(=O)O)cc3[nH]2)c1 [Compound A30] | 97 | – |
| CCOC(=O)Nc1cc2c(nc(-c3ccccc3)n2C(c2ccccc2)c2ccccc2)c(Cl)n1 [Compound A89] | 63 | – |
| CCOC(=O)Nc1cc2c(c(N)n1)N=C(Cc1ccccc1)[C@H](C)N2 [Compound A74] | 72 | – |
| CCOC(=O)Nc1cc2c(c(NC(c3ccccc3)c3ccccc3)n1)N=C(c1ccccc1)C1NC=CN21 (stereo not drawn) [Compound A311] | −16 | – |
| CCOC(=O)Nc1cc(NCC(=O)c2ccc(-c3ccccc3)cc2)c([N+](=O)[O-])c(N)n1 [Compound A300] | 0 | – |
| CCOC(=O)Nc1cc(Nc2ccc(Cl)cc2)c2nc(-c3ccc(Cl)cc3)c(-c3ccc(Cl)cc3)nc2n1 [Compound A121] | 33 | – |
| CCOC(=O)Nc1cc2c(c(N)n1)N=C(c1ccccc1)C(CC)N2 (stereo not drawn) [Compound A306] | −3 | – |
| CCOC(=O)Nc1cc2c(c(N)n1)N=C(c1cccc(OC)c1)CS2 [Compound A68] | 79 | – |
| CCOC(=O)Nc1cc(NC(c2ccccc2)c2ccccc2)c(N)c(N)n1 [Compound A117] | 40 | – |
| CCOC(=O)Nc1cc2[nH]c(-c3ccccc3)nc2c(N(CCc2ccccc2)Cc2ccccc2)n1 [Compound A31] | 97 | – |
| CCOC(=O)Nc1cc2c(c(N)n1)N=C(c1ccc(O)cc1)[C@@H](C)N2 [Compound A166] | 8 | – |
| CCOC(=O)Nc1cc2[nH]cnc2c(Cl)n1 [Compound A203] | 0 | – |
| CCOC(=O)Nc1cc2c(c(N)n1)N=C(CN(C)c1ccc(OC)cc1)CN2 [Compound A138] | 20 | – |
| CCOC(=O)Nc1cc(N)c([N+](=O)[O-])c(NC(=O)OCC)n1 [Compound A272] | 0 | – |
| CCOC(=O)Nc1cc2[nH]c(-c3ccc(C(F)(F)F)cc3)nc2c(N(CCc2ccccc2)Cc2ccccc2)n1 [Compound A32] | 97 | – |
| CCOC(=O)Nc1cc2c([nH]c(=S)n2N)c(N)n1 [Compound A200] | 0 | – |
| CCOC(=O)Nc1cc2c(c(N)n1)N=C(c1cc(OC)c(OC)c(OC)c1)CO2 [Compound A227] | 0 | – |
| CCOC(=O)Nc1cc(N)c2nc(-c3ccccc3)cnc2n1 [Compound A148] | 14 | – |
| CCOC(=O)Nc1cc(NC(C)CCCN(CC)CC)c([N+](=O)[O-])c(N)n1 (stereo not drawn) [Compound A243] | 0 | – |
| CCOC(=O)Nc1cc2c(c(N)n1)N=C(c1ccc(OC)c(OC)c1)CO2 [Compound A193] | 0 | – |
| CCOC(=O)Nc1cc(NC(C)C(O)Cc2ccccc2)c([N+](=O)[O-])c(N)n1 (stereo not drawn) [Compound A104] | 51 | – |
| CCOC(=O)Nc1cc(N)c(N)c(N)n1 [Compound A156] | 10 | – |
